Measured values as given in the supplement of paper PMC10307832.

Columns and labels:
Assay in all cases: relative viability (nuclei count vs DMSO), 5 days (fraction); higher = more cells survive
[1] = compound: CN(C)C[C@@H]1CCn2cc(c3ccccc32)C2=C(C(=O)NC2=O)c2cn(c3ccccc23)CCO1 [Ruboxistaurin]
How it was run: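 Viability was read as treated-well nuclei divided by vehicle-well nuclei, using the median across plates. Lung cancer cell lines in 1536-well plates were kept overnight at 37 °C, pinned with five √10-spaced library-drug doses, and after 5 days were Hoechst-stained, imaged at 4× and counted in MetaXpress. Plates passed only with control CV below 25% and at least one doubling.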

[2] = compound: CN(C)C[C@@H]1CCn2cc(c3ccccc32)C2=C(C(=O)NC2=O)c2cn(c3ccccc23)CCO1 [Ruboxistaurin] + Cc1nc(NC(=O)N2CCC[C@H]2C(N)=O)sc1-c1ccnc(C(C)(C)C(F)(F)F)c1 [Alpelisib] (partner 2 µM)
How it was run: (§1)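 Five library-drug doses in √10 steps were combined with a fixed anchor-drug dose, or a single drug was given alone, by pin tool to lung cancer cell lines in 1536-well plates the day after seeding. Nuclei were stained and counted after 5 days. Relative viability is the nuclei count in treated wells over that in vehicle wells, taken as the median of duplicate plates.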

[3] = compound: CN(C)C[C@@H]1CCn2cc(c3ccccc32)C2=C(C(=O)NC2=O)c2cn(c3ccccc23)CCO1 [Ruboxistaurin] + O=C(c1cc(Cc2n[nH]c(=O)c3ccccc23)ccc1F)N1CCN(C(=O)C2CC2)CC1 [Olaparib] (partner 8 µM)
How it was run: as §1

[4] = compound: CN(C)C[C@@H]1CCn2cc(c3ccccc32)C2=C(C(=O)NC2=O)c2cn(c3ccccc23)CCO1 [Ruboxistaurin] + CS(=O)(=O)CCNCc1ccc(-c2ccc3ncnc(Nc4ccc(OCc5cccc(F)c5)c(Cl)c4)c3c2)o1 [Lapatinib] (partner 2 µM)
How it was run: as §1

[5] = compound: CN(C)C[C@@H]1CCn2cc(c3ccccc32)C2=C(C(=O)NC2=O)c2cn(c3ccccc23)CCO1 [Ruboxistaurin] + CS(=O)(=O)N1CCN(Cc2cc3nc(-c4cccc5[nH]ncc45)nc(N4CCOCC4)c3s2)CC1 [Pictilisib] (partner 1 µM)
How it was run: as §1

[6] = compound: CN(C)C[C@@H]1CCn2cc(c3ccccc32)C2=C(C(=O)NC2=O)c2cn(c3ccccc23)CCO1 [Ruboxistaurin] + C[C@]1(O)C[C@@H](c2nc(-c3ccc4ccc(-c5ccccc5)nc4c3)c3c(N)nccn32)C1 [Linsitinib] (partner 1 µM)
How it was run: as §1

[7] = compound: CN(C)C[C@@H]1CCn2cc(c3ccccc32)C2=C(C(=O)NC2=O)c2cn(c3ccccc23)CCO1 [Ruboxistaurin] + COc1cc2c(Oc3ccc(NC(=O)C4(C(=O)Nc5ccc(F)cc5)CC4)cc3F)ccnc2cc1OCCCN1CCOCC1 [Foretinib] (partner 0.25 µM)
How it was run: as §1

[8] = compound: CN(C)C[C@@H]1CCn2cc(c3ccccc32)C2=C(C(=O)NC2=O)c2cn(c3ccccc23)CCO1 [Ruboxistaurin] + C[C@@H](Oc1cc(-c2cnn(C3CCNCC3)c2)cnc1N)c1c(Cl)ccc(F)c1Cl [Crizotinib] (partner 1 µM)
How it was run: as §1

[9] = compound: CN(C)C[C@@H]1CCn2cc(c3ccccc32)C2=C(C(=O)NC2=O)c2cn(c3ccccc23)CCO1 [Ruboxistaurin] + CC1(C)CCC(c2ccc(Cl)cc2)=C(CN2CCN(c3ccc(C(=O)NS(=O)(=O)c4ccc(N[C@H](CCN5CCOCC5)CSc5ccccc5)c(S(=O)(=O)C(F)(F)F)c4)cc3)CC2)C1 [Navitoclax] (partner 0.5 µM)
How it was run: as §1

[10] = compound: CN(C)C[C@@H]1CCn2cc(c3ccccc32)C2=C(C(=O)NC2=O)c2cn(c3ccccc23)CCO1 [Ruboxistaurin] + CC(C)C[C@H](NC(=O)[C@H](Cc1ccccc1)NC(=O)c1cnccn1)B(O)O [Bortezomib] (partner 0.002 µM)
How it was run: as §1

[11] = compound: CN(C)C[C@@H]1CCn2cc(c3ccccc32)C2=C(C(=O)NC2=O)c2cn(c3ccccc23)CCO1 [Ruboxistaurin] + O=C(CCCCCCC(=O)Nc1ccccc1)NO [Vorinostat] (partner 1 µM)
How it was run: as §1

**Q.** Which results are given for Calu-6?
**A.** relative viability ([1]; 0.08 µM): 1.07; relative viability ([1]; 0.8 µM): 0.951; relative viability ([1]; 2.53 µM): 1.06; relative viability ([1]; 8 µM): 0.982; relative viability ([2]; first compound 0.08 µM): 0.95; relative viability ([2]; first compound 0.8 µM): 0.897; relative viability ([2]; first compound 2.53 µM): 0.981; relative viability ([2]; first compound 8 µM): 0.809; relative viability ([3]; first compound 0.08 µM): 0.635; relative viability ([3]; first compound 0.8 µM): 0.564; relative viability ([3]; first compound 2.53 µM): 0.669; relative viability ([3]; first compound 8 µM): 0.585; relative viability ([4]; first compound 0.08 µM): 1.15; relative viability ([4]; first compound 0.8 µM): 1.02; relative viability ([4]; first compound 2.53 µM): 1.08; relative viability ([4]; first compound 8 µM): 0.933; relative viability ([5]; first compound 0.08 µM): 0.94; relative viability ([5]; first compound 0.8 µM): 0.848; relative viability ([5]; first compound 2.53 µM): 0.795; relative viability ([5]; first compound 8 µM): 0.607; relative viability ([6]; first compound 0.08 µM): 0.978; relative viability ([6]; first compound 0.8 µM): 0.804; relative viability ([6]; first compound 2.53 µM): 0.913; relative viability ([6]; first compound 8 µM): 0.942; relative viability ([7]; first compound 0.08 µM): 0.949; relative viability ([7]; first compound 0.8 µM): 0.848; relative viability ([7]; first compound 2.53 µM): 0.93; relative viability ([7]; first compound 8 µM): 0.893; relative viability ([8]; first compound 0.08 µM): 0.899; relative viability ([8]; first compound 0.8 µM): 0.697; relative viability ([8]; first compound 2.53 µM): 0.807; relative viability ([8]; first compound 8 µM): 0.822; relative viability ([9]; first compound 0.08 µM): 0.967; relative viability ([9]; first compound 0.8 µM): 0.776; relative viability ([9]; first compound 2.53 µM): 0.862; relative viability ([9]; first compound 8 µM): 1.01; relative viability ([10]; first compound 0.08 µM): 1.12; relative viability ([10]; first compound 0.8 µM): 0.948; relative viability ([10]; first compound 2.53 µM): 1.1; relative viability ([10]; first compound 8 µM): 1.17

**Q.** How did the relative viability ([1]; 0.08 µM) turn out when EBC-1 was run?
**A.** Its relative viability is 1.13.

**Q.** And the relative viability ([1]; 0.8 µM)?
**A.** The relative viability was 0.96.

**Q.** And the relative viability ([1]; 2.53 µM)?
**A.** Its relative viability is 0.97.

**Q.** What about the relative viability ([1]; 8 µM) of the same cell line?
**A.** Its relative viability is 0.932.

**Q.** What about the relative viability ([2]; first compound 0.08 µM) of the same cell line?
**A.** The relative viability was 0.82.

**Q.** What about the relative viability ([2]; first compound 0.8 µM) of the same cell line?
**A.** Its relative viability is 0.692.

**Q.** And the relative viability ([2]; first compound 2.53 µM)?
**A.** Its relative viability is 0.741.

**Q.** What about the relative viability ([2]; first compound 8 µM) of the same cell line?
**A.** The relative viability was 0.706.

**Q.** And the relative viability ([3]; first compound 0.08 µM)?
**A.** Its relative viability is 0.763.

**Q.** What about the relative viability ([3]; first compound 0.8 µM) of the same cell line?
**A.** Its relative viability is 0.558.

**Q.** And the relative viability ([3]; first compound 2.53 µM)?
**A.** The relative viability was 0.663.

**Q.** And the relative viability ([3]; first compound 8 µM)?
**A.** The relative viability was 0.447.

**Q.** What about the relative viability ([4]; first compound 0.08 µM) of the same cell line?
**A.** The relative viability was 0.215.

**Q.** And the relative viability ([4]; first compound 0.8 µM)?
**A.** Its relative viability is 0.216.

**Q.** And the relative viability ([4]; first compound 2.53 µM)?
**A.** The relative viability was 0.2.

**Q.** And the relative viability ([4]; first compound 8 µM)?
**A.** The relative viability was 0.201.

**Q.** And the relative viability ([5]; first compound 0.08 µM)?
**A.** Its relative viability is 0.372.

**Q.** And the relative viability ([5]; first compound 0.8 µM)?
**A.** The relative viability was 0.278.

**Q.** And the relative viability ([5]; first compound 2.53 µM)?
**A.** Its relative viability is 0.296.

**Q.** What about the relative viability ([5]; first compound 8 µM) of the same cell line?
**A.** The relative viability was 0.215.

**Q.** And the relative viability ([6]; first compound 0.08 µM)?
**A.** The relative viability was 1.02.

**Q.** What about the relative viability ([6]; first compound 0.8 µM) of the same cell line?
**A.** The relative viability was 0.691.

**Q.** What about the relative viability ([6]; first compound 2.53 µM) of the same cell line?
**A.** Its relative viability is 0.89.

**Q.** What about the relative viability ([6]; first compound 8 µM) of the same cell line?
**A.** Its relative viability is 1.04.

**Q.** What about the relative viability ([7]; first compound 0.08 µM) of the same cell line?
**A.** Its relative viability is 0.102.

**Q.** What about the relative viability ([7]; first compound 0.8 µM) of the same cell line?
**A.** Its relative viability is 0.118.

**Q.** What about the relative viability ([7]; first compound 2.53 µM) of the same cell line?
**A.** The relative viability was 0.121.

**Q.** And the relative viability ([7]; first compound 8 µM)?
**A.** Its relative viability is 0.102.

**Q.** And the relative viability ([8]; first compound 0.08 µM)?
**A.** The relative viability was 0.19.

**Q.** And the relative viability ([8]; first compound 0.8 µM)?
**A.** The relative viability was 0.198.

**Q.** What about the relative viability ([8]; first compound 2.53 µM) of the same cell line?
**A.** Its relative viability is 0.17.

**Q.** And the relative viability ([8]; first compound 8 µM)?
**A.** Its relative viability is 0.167.

**Q.** And the relative viability ([9]; first compound 0.08 µM)?
**A.** The relative viability was 0.527.

**Q.** And the relative viability ([9]; first compound 0.8 µM)?
**A.** Its relative viability is 0.308.

**Q.** And the relative viability ([9]; first compound 2.53 µM)?
**A.** Its relative viability is 0.381.

**Q.** What about the relative viability ([9]; first compound 8 µM) of the same cell line?
**A.** The relative viability was 0.358.

**Q.** What about the relative viability ([10]; first compound 0.08 µM) of the same cell line?
**A.** Its relative viability is 0.587.

**Q.** And the relative viability ([10]; first compound 0.8 µM)?
**A.** The relative viability was 0.5.

**Q.** What about the relative viability ([10]; first compound 2.53 µM) of the same cell line?
**A.** The relative viability was 0.437.

**Q.** And the relative viability ([10]; first compound 8 µM)?
**A.** Its relative viability is 0.454.

**Q.** Which results are given for IA-LM?
**A.** relative viability ([1]; 0.08 µM): 0.959; relative viability ([1]; 0.8 µM): 0.79; relative viability ([1]; 2.53 µM): 0.981; relative viability ([1]; 8 µM): 1; relative viability ([2]; first compound 0.08 µM): 0.971; relative viability ([2]; first compound 0.8 µM): 0.663; relative viability ([2]; first compound 2.53 µM): 0.747; relative viability ([2]; first compound 8 µM): 0.612; relative viability ([11]; first compound 0.08 µM): 1.13; relative viability ([11]; first compound 0.8 µM): 0.937; relative viability ([11]; first compound 2.53 µM): 0.656; relative viability ([11]; first compound 8 µM): 0.939; relative viability ([3]; first compound 0.08 µM): 0.871; relative viability ([3]; first compound 0.8 µM): 0.836; relative viability ([3]; first compound 2.53 µM): 0.842; relative viability ([3]; first compound 8 µM): 0.912; relative viability ([4]; first compound 0.08 µM): 0.751; relative viability ([4]; first compound 2.53 µM): 1.07; relative viability ([4]; first compound 8 µM): 0.789; relative viability ([5]; first compound 0.08 µM): 0.389; relative viability ([5]; first compound 0.8 µM): 0.271; relative viability ([5]; first compound 2.53 µM): 0.381; relative viability ([5]; first compound 8 µM): 0.323; relative viability ([6]; first compound 0.08 µM): 0.734; relative viability ([6]; first compound 0.8 µM): 0.277; relative viability ([6]; first compound 2.53 µM): 0.6; relative viability ([6]; first compound 8 µM): 0.685; relative viability ([7]; first compound 0.08 µM): 1.14; relative viability ([7]; first compound 0.8 µM): 1.11; relative viability ([7]; first compound 2.53 µM): 1.31; relative viability ([7]; first compound 8 µM): 1.38; relative viability ([8]; first compound 0.08 µM): 1.01; relative viability ([8]; first compound 2.53 µM): 0.967; relative viability ([8]; first compound 8 µM): 0.938; relative viability ([9]; first compound 0.08 µM): 0.852; relative viability ([9]; first compound 0.8 µM): 0.722; relative viability ([9]; first compound 2.53 µM): 0.862; relative viability ([9]; first compound 8 µM): 0.987; relative viability ([10]; first compound 0.08 µM): 0.891; relative viability ([10]; first compound 0.8 µM): 0.669; relative viability ([10]; first compound 2.53 µM): 1.1; relative viability ([10]; first compound 8 µM): 0.98
